Target: T1, GAK (InCELL Pulse) (Homo sapiens, UniProt O14976)
T1 sequence (O14976 2-1311): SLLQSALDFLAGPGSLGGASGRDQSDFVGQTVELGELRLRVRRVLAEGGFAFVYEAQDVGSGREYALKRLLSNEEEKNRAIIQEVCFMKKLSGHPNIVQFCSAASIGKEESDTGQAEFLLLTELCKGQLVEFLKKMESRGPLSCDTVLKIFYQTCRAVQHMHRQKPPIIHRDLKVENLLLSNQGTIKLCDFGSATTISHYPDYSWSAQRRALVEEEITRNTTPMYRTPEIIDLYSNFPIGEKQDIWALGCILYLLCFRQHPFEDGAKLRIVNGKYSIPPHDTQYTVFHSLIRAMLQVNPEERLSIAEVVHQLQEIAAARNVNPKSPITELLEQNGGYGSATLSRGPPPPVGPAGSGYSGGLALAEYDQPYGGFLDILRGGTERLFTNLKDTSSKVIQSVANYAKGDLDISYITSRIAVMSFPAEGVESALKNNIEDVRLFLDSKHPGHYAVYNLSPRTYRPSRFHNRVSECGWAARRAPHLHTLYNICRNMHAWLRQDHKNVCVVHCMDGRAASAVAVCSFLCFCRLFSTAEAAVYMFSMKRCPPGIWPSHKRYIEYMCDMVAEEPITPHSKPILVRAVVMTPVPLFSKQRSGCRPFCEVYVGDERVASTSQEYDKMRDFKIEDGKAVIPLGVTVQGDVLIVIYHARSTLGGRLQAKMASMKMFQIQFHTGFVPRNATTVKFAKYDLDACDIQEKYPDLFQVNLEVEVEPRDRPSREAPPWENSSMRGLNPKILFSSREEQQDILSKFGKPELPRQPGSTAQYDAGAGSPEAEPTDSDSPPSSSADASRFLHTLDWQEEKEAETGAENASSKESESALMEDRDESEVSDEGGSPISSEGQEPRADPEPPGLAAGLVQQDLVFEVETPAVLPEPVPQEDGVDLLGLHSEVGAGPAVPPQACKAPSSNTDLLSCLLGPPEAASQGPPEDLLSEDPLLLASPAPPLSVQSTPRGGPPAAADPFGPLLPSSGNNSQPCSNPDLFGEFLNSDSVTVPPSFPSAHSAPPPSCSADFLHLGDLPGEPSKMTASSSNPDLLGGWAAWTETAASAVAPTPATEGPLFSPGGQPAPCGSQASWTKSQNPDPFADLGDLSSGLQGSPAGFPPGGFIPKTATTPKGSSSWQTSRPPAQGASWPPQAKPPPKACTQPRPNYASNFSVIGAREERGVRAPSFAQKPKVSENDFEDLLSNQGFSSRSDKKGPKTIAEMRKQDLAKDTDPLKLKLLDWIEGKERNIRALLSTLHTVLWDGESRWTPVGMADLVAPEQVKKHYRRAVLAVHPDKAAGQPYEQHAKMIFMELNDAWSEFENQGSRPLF
Assay: InCELL Pulse cellular target engagement
Type: cell-based
Settings: in cells

Row | IC50 | Compound
1 | 0.045 µM | COc1cc2nccc(Nc3cc(OC)c(OC)c(OC)c3)c2cc1OC [compound 15, 6,7-disubstituted methoxy (15)]
2 | 6.7 µM | COc1cc(Nc2ncnc3ccc(C(F)(F)F)cc23)cc(OC)c1OC [compound 19, quinazoline (19)]

Source: paper doi:10.1101/471615v1 (biorxiv, 2018)
